The target of test [1] is T1, androgen receptor (AR-LBD) (Rattus norvegicus, UniProt P15207).
T1 construct: 5 μL of 2×AR-LBD/Fluoromone AL Red Complex contained in the kit; purchased Invitrogen
T1 sequence (P15207 651-882 limits assumed): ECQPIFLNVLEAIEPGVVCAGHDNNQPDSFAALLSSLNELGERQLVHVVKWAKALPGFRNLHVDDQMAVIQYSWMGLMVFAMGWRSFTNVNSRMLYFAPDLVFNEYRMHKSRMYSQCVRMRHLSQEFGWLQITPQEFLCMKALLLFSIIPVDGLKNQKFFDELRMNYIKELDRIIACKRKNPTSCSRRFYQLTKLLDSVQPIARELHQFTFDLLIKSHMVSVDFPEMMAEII
Kind of test: Evaluation of androgen receptor affinity (PolarScreen Androgen Receptor Competitor Assay Kit, Red; fluorescence polarization). The following applies: 22° C. for 5 hours, relative to binding rate of 1 μM DHT, read-out: AR affinity (pEC50) (converted). Summed up: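 Duplicate wells of test compound were mixed with the kit's rat AR-LBD–Fluoromone AL Red tracer complex and left 5 hours at 22 °C before polarization was read. A 4-parameter fit gave pEC50, with binding rate referenced to 1 μM dihydrotestosterone.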

The next test concerns the target T2, human androgen receptor (Homo sapiens, UniProt P10275).
T2 construct: expressed in transfected cells; host or cells: HEK293
T2 sequence (P10275 1-920): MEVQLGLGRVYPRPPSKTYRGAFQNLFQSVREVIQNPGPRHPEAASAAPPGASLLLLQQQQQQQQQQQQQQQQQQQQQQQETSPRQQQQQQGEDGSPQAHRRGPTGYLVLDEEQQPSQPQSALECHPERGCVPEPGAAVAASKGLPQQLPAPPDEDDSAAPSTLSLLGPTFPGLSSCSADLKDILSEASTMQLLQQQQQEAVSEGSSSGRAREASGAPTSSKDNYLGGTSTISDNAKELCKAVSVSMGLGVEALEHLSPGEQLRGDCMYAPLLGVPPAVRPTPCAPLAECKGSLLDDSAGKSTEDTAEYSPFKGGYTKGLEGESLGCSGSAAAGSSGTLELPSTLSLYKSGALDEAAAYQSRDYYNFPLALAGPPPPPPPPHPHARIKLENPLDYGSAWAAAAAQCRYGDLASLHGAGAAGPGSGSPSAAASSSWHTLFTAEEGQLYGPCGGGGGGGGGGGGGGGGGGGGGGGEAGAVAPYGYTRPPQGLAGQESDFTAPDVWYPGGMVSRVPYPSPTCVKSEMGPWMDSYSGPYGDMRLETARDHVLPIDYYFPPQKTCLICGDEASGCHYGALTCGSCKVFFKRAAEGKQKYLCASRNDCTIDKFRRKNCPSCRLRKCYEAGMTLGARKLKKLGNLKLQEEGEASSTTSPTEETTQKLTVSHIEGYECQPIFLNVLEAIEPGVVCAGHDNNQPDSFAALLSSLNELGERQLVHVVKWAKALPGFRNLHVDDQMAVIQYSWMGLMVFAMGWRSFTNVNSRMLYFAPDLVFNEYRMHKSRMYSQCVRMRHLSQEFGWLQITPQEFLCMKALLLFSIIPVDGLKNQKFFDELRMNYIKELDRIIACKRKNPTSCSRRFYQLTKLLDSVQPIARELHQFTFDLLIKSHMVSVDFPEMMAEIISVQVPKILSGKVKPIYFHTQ
Put plainly: Reporter assay of an androgen receptor responsive sequence (luciferase, transiently transfected HEK293 cells). The following applies: 24 hours incubation, relative to activity of 100 nM DHT, read-out: AR transcriptive activity (pEC50) (converted). In kind it is cell-based. The gist of the method:
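Agonism scored as pEC50, fitted by 4-parameter curve against the response to 100 nM DHT, from dual-luciferase readout after 24 h compound treatment. Cells were HEK293 co-transfected (3 h) with human AR expression vector, androgen-responsive firefly reporter and Renilla control, in charcoal-stripped serum.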
On the technique in general: In a reporter assay the amount or activity of a reporter protein is the signal.

Take `Cc1sc(N(CCc2ccc(Cl)cc2)Cc2ccc(C#N)cc2)nc1C(=O)NS(C)(=O)=O` [Compound 503, 2-[2-(4-chlorophenyl)ethyl-[(4-cyanophenyl)methyl]amino]-5-methyl-N-methylsulfonyl-thiazole-4-carboxamide]: the EC50 in test [1] is 31.6 nM; at human androgen receptor, 1260 nM.

`Cc1nc(CN(CCc2ccc(Cl)cc2)c2nc(C(=O)NS(C)(=O)=O)c(C)s2)cs1` [Compound 504, 2-[2-(4-chlorophenyl)ethyl-[(2-methylthiazol-4-yl)methyl]amino]-5-methyl-N-methylsulfonyl-thiazole-4-carboxamide]: the EC50 in test [1] was 63.1 nM; on human androgen receptor, 631 nM.

As to `COc1cccc(CN(CCc2ccc(OC(F)(F)F)cc2)c2nc(C(=O)NS(C)(=O)=O)c(C)s2)n1` [Compound 505, 2-[(6-methoxy-2-pyridyl)methyl-[2-[4-(trifluoromethoxy)phenyl]ethyl]amino]-5-methyl-N-methylsulfonyl-thiazole-4-carboxamide], the EC50 in test [1] is 39.8 nM; at human androgen receptor, 2000 nM.

Take `Cc1sc(N(CCc2ccc(OC(F)(F)F)cc2)Cc2ccc(C#N)cc2)nc1C(=O)NS(C)(=O)=O` [Compound 506, 2-[(4-cyanophenyl)methyl-[2-[4-(trifluoromethoxy)phenyl]ethyl]amino]-5-methyl-N-methylsulfonyl-thiazole-4-carboxamide]: the results for the EC50 (in test [1]; on human androgen receptor) were 25.1 nM and more than 10000 nM, respectively.

Regarding `Cc1nc(CN(CCc2ccc(OC(F)(F)F)cc2)c2nc(C(=O)NS(C)(=O)=O)c(C)s2)cs1` [Compound 507, 5-methyl-N-methylsulfonyl-2-[(2-methylthiazol-4-yl)methyl-[2-[4-(trifluoromethoxy)phenyl]ethyl]amino]thiazole-4-carboxamide], the EC50 in test [1] was 39.8 nM; at human androgen receptor, 501 nM.

With `Cc1cc(CN(CCc2ccc(Cl)cc2)c2nc(C(=O)NS(C)(=O)=O)c(C)s2)no1` [Compound 508, 2-[2-(4-chlorophenyl)ethyl-[(5-methylisoxazol-3-yl)methyl]amino]-5-methyl-N-methylsulfonyl-thiazole-4-carboxamide], the EC50 in test [1] is 316 nM; on human androgen receptor it was 5010 nM.

For the molecule `Cc1cc(CN(CCc2ccc(OC(F)(F)F)cc2)c2nc(C(=O)NS(C)(=O)=O)c(C)s2)no1` [Compound 509, 5-methyl-2-[(5-methylisoxazol-3-yl)methyl-[2-[4-(trifluoromethoxy)phenyl]ethyl]amino]-N-methylsulfonyl-thiazole-4-carboxamide], the EC50 in test [1] was 200 nM; at human androgen receptor it was more than 10000 nM.

Regarding `Cc1sc(N(CC2COc3ccccc3C2)c2ccc(C#N)cc2)nc1C(=O)NS(C)(=O)=O` (stereo not drawn) [Compound 510, 2-[N-(chroman-3-ylmethyl)-4-cyano-anilino]-5-methyl-N-methylsulfonyl-thiazole-4-carboxamide], the EC50 is 126 nM in test [1] and 1260 nM on human androgen receptor.

On to `Cc1sc(N(Cc2ccc(OC(F)F)cn2)c2ccc(C#N)cc2)nc1C(=O)NS(C)(=O)=O` [Compound 511, 2-[4-cyano-N-[[5-(difluoromethoxy)-2-pyridyl]methyl]anilino]-5-methyl-N-methylsulfonyl-thiazole-4-carboxamide], for which the figures for the EC50 (in test [1]; at human androgen receptor) were 158 nM and 316 nM, respectively.

Turning to `Cc1sc(N(CCc2ccc(OC(F)(F)F)cc2)Cc2ccc(Cl)cn2)nc1C(=O)NS(C)(=O)=O` [Compound 512, 2-[(5-chloro-2-pyridyl)methyl-[2-[4-(trifluoromethoxy)phenyl]ethyl]amino]-5-methyl-N-methylsulfonyl-thiazole-4-carboxamide], the EC50 was 100 nM in test [1] and 1260 nM at human androgen receptor.

`Cc1nc(CN(CCc2ccc(OC(F)F)cc2)c2nc(C(=O)NS(C)(=O)=O)c(C)s2)cs1` [Compound 513, 2-[2-[4-(difluoromethoxy)phenyl]ethyl-[(2-methylthiazol-4-yl)methyl]amino]-5-methyl-N-methylsulfonyl-thiazole-4-carboxamide]: the EC50 in test [1] is 200 nM; at human androgen receptor, 1580 nM.

As to `Cc1sc(N(Cc2ccc(C(F)(F)F)cn2)c2ccc(C#N)cc2)nc1C(=O)NS(C)(=O)=O` [Compound 514, 2-[4-cyano-N-[[5-(trifluoromethyl)-2-pyridyl]methyl]anilino]-5-methyl-N-methylsulfonyl-thiazole-4-carboxamide], the EC50 in test [1] was 126 nM; at human androgen receptor it was 158 nM.

With `COc1ccc(CN(c2ccc(C#N)cc2)c2nc(C(=O)NS(C)(=O)=O)c(C)s2)nc1` [Compound 515, 2-[4-cyano-N-[(5-methoxy-2-pyridyl)methyl]anilino]-5-methyl-N-methylsulfonyl-thiazole-4-carboxamide], the EC50 in test [1] was 794 nM; at human androgen receptor, 501 nM.

On to `COc1ccc(CN(c2ccc(C#N)cc2)c2nc(C(=O)NS(C)(=O)=O)c(C)s2)nn1` [Compound 516, 2-[4-cyano-N-[(6-methoxypyridazin-3-yl)methyl]anilino]-5-methyl-N-methylsulfonyl-thiazole-4-carboxamide], for which the EC50 in test [1] was more than 2000 nM; at human androgen receptor, 6310 nM.

Regarding `Cc1sc(N(Cc2ccc(F)cn2)c2ccc(C#N)cc2)nc1C(=O)NS(C)(=O)=O` [Compound 517, 2-[4-cyano-N-[(5-fluoro-2-pyridyl)methyl]anilino]-5-methyl-N-methylsulfonyl-thiazole-4-carboxamide], the EC50 was 316 nM in test [1] and 631 nM on human androgen receptor.

Take `Cc1sc(N(Cc2cc(F)cc(OC(F)F)c2)c2ccc(C#N)cc2)nc1C(=O)NS(C)(=O)=O` [Compound 518, 2-[4-cyano-N-[[3-(difluoromethoxy)-5-fluoro-phenyl]methyl]anilino]-5-methyl-N-methylsulfonyl-thiazole-4-carboxamide]: the EC50 in test [1] was 25.1 nM; on human androgen receptor it was 39.8 nM.

As for `COCCCS(=O)(=O)NC(=O)c1nc(N(Cc2cc(F)cc(OC(F)F)c2)c2ccc(C#N)cc2)sc1C` [Compound 519, 2-[4-cyano-N-[[3-(difluoromethoxy)-5-fluoro-phenyl]methyl]anilino]-N-(3-methoxypropylsulfonyl)-5-methyl-thiazole-4-carboxamide], the EC50 in test [1] was 25.1 nM; at human androgen receptor, 158 nM.

As to `Cc1sc(N(Cc2cc(OC(F)F)ccc2F)c2ccc(C#N)cc2)nc1C(=O)NS(C)(=O)=O` [Compound 520, 2-[4-cyano-N-[[5-(difluoromethoxy)-2-fluoro-phenyl]methyl]anilino]-5-methyl-N-methylsulfonyl-thiazole-4-carboxamide], the EC50 in test [1] is 25.1 nM; on human androgen receptor, 316 nM.

`COCCCS(=O)(=O)NC(=O)c1nc(N(Cc2cc(OC(F)F)ccc2F)c2ccc(C#N)cc2)sc1C` [Compound 521, 2-[4-cyano-N-[[5-(difluoromethoxy)-2-fluoro-phenyl]methyl]anilino]-N-(3-methoxypropylsulfonyl)-5-methyl-thiazole-4-carboxamide]: the EC50 in test [1] is 31.6 nM; at human androgen receptor it was 1260 nM.

As for `Cc1sc(N(Cc2ccc(OC(F)F)cc2F)c2ccc(C#N)cc2)nc1C(=O)NS(C)(=O)=O` [Compound 522, 2-[4-cyano-N-[[4-(difluoromethoxy)-2-fluoro-phenyl]methyl]anilino]-5-methyl-N-methylsulfonyl-thiazole-4-carboxamide], the EC50 in test [1] is 25.1 nM; at human androgen receptor, 251 nM.

Regarding `COCCCS(=O)(=O)NC(=O)c1nc(N(Cc2ccc(OC(F)F)cc2F)c2ccc(C#N)cc2)sc1C` [Compound 523, 2-[4-cyano-N-[[4-(difluoromethoxy)-2-fluoro-phenyl]methyl]anilino]-N-(3-methoxypropylsulfonyl)-5-methyl-thiazole-4-carboxamide], the results for the EC50 (in test [1]; on human androgen receptor) were 31.6 nM and 398 nM, respectively.

The record behind these values is US10689354B2, “Aminoazole derivative” (Teijin Pharma Limited, priority 2015, dated 2020).
